# Assay results taken from patent US5262417A, “Antibacterial quinolone compounds” (The Upjohn Company, priority 1991, dated 1993).
# Where “and” joins values, the source holds several entries; their conditions need not be identical. Identical values can stand only once. Like-named read-outs stand apart in the source and are kept apart here.
# Key:
# Format in all cases: cell-based
# [1] = tested on: Pseudomonas aeruginosa UC 95 (PA); assay: Dipped disk (disk-diffusion) assay, disks loaded with 0.10 ml; conditions: Pseudomonas aeruginosa, UC95; Conc 1 mg/ml, 0.10 ml per disk; read-out: Growth Inhibition Zone, PA
# Procedure: (§1) The effectiveness of the subject compounds on some bacteria were obtained by performing a dipped disk assay. The antibacterial activity of the compounds is determined by the disk-diffusion method. […] They were then applied to the surface of microorganism-seeded agar assay trays, which contained the bacterial strain Pseudomonas aeruginosa UC 95 )PA), Escherichia coli UC 51 (EC) or Staphylococcus aureus UC 80 (SA). The assay trays were incubated overnight under aerobic condition to allow for the growth of the organisms. Zones of growth inhibition due to the action of the antibiotic were then measured to the nearest millimeter.
# [2] = tested on: Staphylococcus aureus UC 80 (SA); assay: as above
# Procedure: as §1
# [3] = tested on: Pseudomonas aeruginosa UC 95 (PA); assay: Dip disk (disk-diffusion) assay, disks loaded with 0.05 ml; conditions: Pseudomonas aeruginosa, UC95; 0.1 mcg/ml, 0.05 ml per disk; read-out: Growth Inhibition zone, PA
# Procedure: (§2) The effectiveness of the subject compounds on bacteria were obtained by performing a dip disk assay. The antibacterial activity of the compounds was determined by the disk-diffusion method. Paper disks (12.7 mm) were loaded with 0.05 ml of drug solution prepared at a concentration of 0.1 mcg/ml; the disks were allowed to air dry. They were then applied to the surface of microorganism-seeded agar assay trays, which contained the bacterial strain Pseudomonas aeruginosa UC 95 (PA), Escherichia coli UC 51 (EC), Klebsiella pneumoniae UC 57 (KP), or Staphylococcus aureus UC 80 (SA). The assay trays were incubated overnight under aerobic condition to allow for the growth of the organisms. Zones of growth inhibition due to the action of the antibiotic were then measured to the nearest millimeter.
# (§3) The effectiveness of additional compounds 5-9, (5-7 are Formula IAa compounds and 8 and 9 are Formula IAb compounds) on bacteria were obtained by performing a dip disk assay as described above. The antibacterial activity of the compounds was determined by the disk-diffusion method where the disks were loaded with 0.05 ml of drug solution prepared at a concentration of 1.0 mcg/ml; the disks were allowed to air dry.
# [4] = tested on: Staphylococcus aureus UC 80 (SA); assay: as above; conditions: Staphylococcus aureus, UC80, read-out: Growth Inhibition zone, SA
# Procedure: as §2, §3
# [5] = tested on: Escherichia coli UC 51 (EC); assay: as above; conditions: Escherichia coli, UC51; 0.1 mcg/ml, 0.05 ml per disk; read-out: Growth Inhibition zone, EC
# Procedure: as §2, §3
# Staphylococcus aureus = assay: Minimum inhibitory concentration (MIC) by agar dilution; conditions: for MIC: Staphylococcus aureus
# How it was run: (§4)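 Susceptibility followed the NCCLS agar dilution procedure in unsupplemented Mueller Hinton agar, with bacterial inocula standardised to 0.5 McFarland turbidity and diluted 1:20 in Trypticase soy broth.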
# [6] = tested on: Acinetobacter calcoaceticus; assay: as above; conditions: for MIC: Acinetobacter calcoaceticus
# How it was run: as §4
# Klebsiella pneumoniae = assay: as above
# How it was run: as §4
# Streptococcus pneumoniae = assay: as above; conditions: for MIC: Streptococcus pneumoniae
# How it was run: as §4
# Proteus penneri = assay: as above; conditions: for MIC: Proteus penneri
# How it was run: as §4
# Streptococcus faecalis = assay: as above; conditions: Enterococcus faecalis
# How it was run: as §4
# Streptococcus pyogenes = assay: as above; conditions: for MIC: Streptococcus pyogenes
# How it was run: as §4
# Citerobacter freundii = assay: as above
# How it was run: as §4
# [7] = tested on: Escherichia coli UC 51 (EC); assay: Dipped disk (disk-diffusion) assay, disks loaded with 0.10 ml; set-up: zone of inhibition: dose or concentration left out as unconfirmed
# Procedure: as §1
# [8] = 20 h, read-out: MINIMUM INHIBITORY CONCENTRATION
smiles,measurement,setting,value
"O=C(O)c1cn(C2CC2)c2cc(N3CCNCC3)c(F)cc2c1=O [Ciprofloxacin, reference compound]",zone of inhibition at 1000 µg/mL,[1],48 mm
same,"Growth Inhibition Zone, SA","[2]; Conc 1 mg/ml, 0.10 ml per disk",30 mm
same,zone of inhibition at 1000 µg/mL,"[2]; Staphylococcus aureus, UC80, read-out: Growth Inhibition Zone, SA, Conc 1 mg/ml, 0.10 ml per disk",28 mm
same,zone of inhibition at 0.1 µg/mL,[3],38 mm
same,zone of inhibition at 0.1 µg/mL,[4],27 mm
same,zone of inhibition at 0.1 µg/mL,[5],29 mm
same,MINIMUM INHIBITORY CONCENTRATION,"Staphylococcus aureus; Cult No. 6685, MHA",0.25 mcg per ml and 0.125 mcg per ml
same,MINIMUM INHIBITORY CONCENTRATION,"Staphylococcus aureus; Cult No. 9213, MHA",1 mcg per ml and 0.5 mcg per ml
same,MINIMUM INHIBITORY CONCENTRATION,"Staphylococcus aureus; Cult No. 9218, MHA",0.5 mcg per ml and 0.25 mcg per ml
same,MIC,"Staphylococcus aureus; 20 h, read-out: MINIMUM INHIBITORY CONCENTRATION, Cult No. 3665, MHA",1 µg/mL
same,MIC,"Staphylococcus aureus; 20 h, read-out: MINIMUM INHIBITORY CONCENTRATION, Cult No. 6685, MHA",0.25 µg/mL
same,MIC,"Staphylococcus aureus; 20 h, read-out: MINIMUM INHIBITORY CONCENTRATION, Cult No. 9213, MHA",1 µg/mL
same,MIC,"Staphylococcus aureus; 20 h, read-out: MINIMUM INHIBITORY CONCENTRATION, Cult No. 9218, MHA",0.5 µg/mL
same,MIC,"Staphylococcus aureus; 20 h, read-out: MINIMUM INHIBITORY CONCENTRATION, Cult No. 9271, MHA",0.5 µg/mL
same,MIC,"Staphylococcus aureus; UC6685, 20 h, read-out: Minimum Inhibitory Concentration, S. aureus UC 6685, Table CI",0.25 µg/mL
same,MIC,"Staphylococcus aureus; UC9213, 20 h, read-out: Minimum Inhibitory Concentration, S. aureus UC 9213, Table CI",1 µg/mL
same,MIC,"Staphylococcus aureus; UC9218, 20 h, read-out: Minimum Inhibitory Concentration, S. aureus UC 9218, Table CI",0.5 µg/mL
same,MIC,"Staphylococcus aureus; UC9271, 20 h, read-out: Minimum Inhibitory Concentration, S. aureus UC 9271, Table CI",0.5 µg/mL
same,MIC,"[6]; 20 h, read-out: MINIMUM INHIBITORY CONCENTRATION, Cult No. 12170, MHA",0.25 µg/mL
same,MIC,"[6]; UC12170, 20 h, read-out: Minimum Inhibitory Concentration, A. calcoaceticus UC 12170, Table CI",0.25 µg/mL
same,MINIMUM INHIBITORY CONCENTRATION,"[6]; Cult No. 12170, MHA",0.25 mcg per ml and 0.125 mcg per ml
same,MIC,Klebsiella pneumoniae; [8],0.03 µg/mL
same,MIC,"Klebsiella pneumoniae; UC12081, 20 h, read-out: Minimum Inhibitory Concentration",0.03 µg/mL
same,MINIMUM INHIBITORY CONCENTRATION,"Streptococcus pneumoniae; Cult No. 41, MHA",0.5 mcg per ml and 0.25 mcg per ml
same,MIC,"Streptococcus pneumoniae; 20 h, read-out: MINIMUM INHIBITORY CONCENTRATION, Cult No. 41, MHA",0.5 µg/mL
same,MIC,"Streptococcus pneumoniae; UC41, 20 h, read-out: Minimum Inhibitory Concentration, S. pneumoniae UC 41, Table CI",0.5 µg/mL
same,MINIMUM INHIBITORY CONCENTRATION,"Proteus penneri; Cult No. 9679, MHA",0.03 mcg per ml and 0.015 mcg per ml
same,MIC,"Proteus penneri; 20 h, read-out: MINIMUM INHIBITORY CONCENTRATION, Cult No. 9679, MHA",0.015 µg/mL
same,MIC,"Proteus penneri; UC9679, 20 h, read-out: Minimum Inhibitory Concentration, P. penneri UC 9679, Table CI",0.015 µg/mL
same,MIC,Streptococcus faecalis; [8],0.5 µg/mL
same,MIC,"Streptococcus faecalis; UC9217, 20 h, read-out: Minimum Inhibitory Concentration",0.5 µg/mL
same,MINIMUM INHIBITORY CONCENTRATION,"Streptococcus pyogenes; Cult No. 152, MHA",0.25 mcg per ml and 0.125 mcg per ml
same,MIC,"Streptococcus pyogenes; 20 h, read-out: MINIMUM INHIBITORY CONCENTRATION, Cult No. 152, MHA",0.25 µg/mL
same,MIC,"Streptococcus pyogenes; UC152, 20 h, read-out: Minimum Inhibitory Concentration, S. pyogenes UC 152, Table CI",0.25 µg/mL
same,MIC,Citerobacter freundii; [8],< 8 ng/mL
same,MIC,"Citerobacter freundii; Citrobacter freundii, UC3507, 20 h, read-out: Minimum Inhibitory Concentration",< 8 ng/mL
same,"Growth Inhibition Zone, EC","[7]; Conc 1 mg/ml, 0.10 ml per disk",35 mm
same,zone of inhibition,"[7]; Escherichia coli, UC51, 0.10 ml per disk, read-out: Growth Inhibition Zone, EC",33 mm
